In PMC5402304, “Oxoaporphine Metal Complexes (Co^II, Ni^II, Zn^II) with High Antitumor Activity by Inducing Mitochondria-Mediated Apoptosis and S-phase Arrest in HepG2” (Scientific Reports, 2017):

Legend:
HepG2 cells = assay: Comet assay for DNA damage; assay type: cell-based, human; design: unit not given here; details: HepG2, 1.0 μM, 24 h
Protocol: After the observation of significant S-phase arrest caused by 1–3, the study of DNA damage assay is necessary. The single cell gel electrophoresis technique (comet assay) is a simple, sensitive, reliable, and rapid method to detect DNA damage in eukaryotic cell[39]. As shown in Table 3 and Fig. 6, 1–3 at 1.0 μM induced DNA damage (fragmentation or unwinding) appeared as fluorescent comets with remarkable increase of tails size, especially for 3.
The comet assay is a simple method for measuring DNA strand breaks in cells. The comet assay reagent kit was purchased from Trevigen, and the experiment was carried out according to the manufacturer’s instructions. After treatment with OD and 1–3 at 1.0 μM, HepG2 cells were harvested and suspended at 1 × 10^6 Hep-G2 cells/mL in PBS. The cells suspension was mixed with melted LM agarose at a ratio of 1:10 (v/v). An aliquot (75 μL) of the mixture was immediately pipetted onto the slide (Comet Slide TM). After refrigeration for 30 min, the slide was immersed in pre-chilled lysis solution and left on ice for 60 min, followed by immersing in freshly prepared alkaline solution (300 mM NaOH, 1 mM EDTA, pH > 13) for 60 min on ice in darkness. After DNA unwinding, the slide was subjected to alkaline solution for electrophoresis in a Savant ps 250 system set at 300 mA and 1 volt/cm for 30 min. After electrophoresis, the slide was rinsed with distilled H2O, fixed in 70% ethanol for 5 min and air-dried overnight. DNA was stained with SYBR Green I (Trevigen) and visualized under a fluorescence microscope (Nikon, Eclipse E600).

cleaved PARP = assay: Western blot of cleaved PARP in HepG2 cells; assay type: cell-based, human; details: 24 h
Protocol: During the caspases-activated apoptotic cascades, mitochondrial apoptotic genes Apaf-1, PARP play an important role. The expressions of Apaf-1, pro-PARP and cleaved PARP in HepG2 cells treated with 3 were carried out by Western blotting. […] The expression of Apaf-1 protein was further confirmed by RT-PCR (Fig. 13C) that the up-regulation of Apaf-1 was also observed. PARP was considered to be an important indicator of cell apoptosis, and the cleaved PARP could cause cellular inactivation and prevent DNA repair.
After incubated with 1–3 (1.0 μM) for 24 h, HepG2 cells were harvested and lysed in 150 μL of lysed buffer (149 μL RIPA and 1 μL PMSF), and then placed on ice for 15 min. The total proteins were extracted by centrifuging the cell sample at 10000 rpm at 4 °C for 10 min. Then about 50 μg of purified proteins were mixed with equal volume of electrophoresis sample buffer, and the mixture was boiled for 10 min. Meanwhile the equal protein content from the control cells was prepared in the same way. The cell sample (10 μL) was loaded onto 10% SDS-PAGE gels and then transferred onto a microporous polyvinylidene difluoride (PVDF) membrane. The membrane was blocked with 5% BSA in TBST buffer for more than 2 h. […] The immunoreactive signals were detected using an enhanced chemo-luminance kit (Pierce ECL Western Blotting Substrate) following the procedures given in the user manual.

Substance [Zn(OD)2(H2O)2] (ClO4)2 [Complex 3] has a Comet length (HepG2 cells) of 119.12 ± 6.59, an Olive tail moment (HepG2 cells) of 22.67 ± 3.76 and a Tail length (HepG2 cells) of 58.67 ± 9.14. For the same substance, the Tail moment (HepG2 cells) was 30.46 ± 6.98 and the “increment of cleaved PARP” value (cleaved PARP) was “approximately 70 fold”.
